Measurements reported in patent US20150157739A1, “Imidazo[2,1]thiazol-3-one derivatives” (Hoffmann-La Roche Inc., priority 2012, published 2015).

Key:
[1] = biological target: T1, aggregated recombinant human-microtubule associated protein Tau (Homo sapiens, UniProt P10636); assay: Thiazin-red R displacement fluorescence assay on aggregated Tau; format: binding; settings: displacement of Thiazin-red R from aggregated Tau; compound 0.3 nM to 10000 nM; 30 min room temperature; Ex 531 nm/Em 595 nm
T1 construct: Recombinant human-microtubule associated protein Tau purified from E. coli is aggregated at a concentration of 5 μM with Arachidonic Acid (100 μM) in Tris 10 mM pH8, 24 h at 37° C
T1 sequence (P10636 whole entry): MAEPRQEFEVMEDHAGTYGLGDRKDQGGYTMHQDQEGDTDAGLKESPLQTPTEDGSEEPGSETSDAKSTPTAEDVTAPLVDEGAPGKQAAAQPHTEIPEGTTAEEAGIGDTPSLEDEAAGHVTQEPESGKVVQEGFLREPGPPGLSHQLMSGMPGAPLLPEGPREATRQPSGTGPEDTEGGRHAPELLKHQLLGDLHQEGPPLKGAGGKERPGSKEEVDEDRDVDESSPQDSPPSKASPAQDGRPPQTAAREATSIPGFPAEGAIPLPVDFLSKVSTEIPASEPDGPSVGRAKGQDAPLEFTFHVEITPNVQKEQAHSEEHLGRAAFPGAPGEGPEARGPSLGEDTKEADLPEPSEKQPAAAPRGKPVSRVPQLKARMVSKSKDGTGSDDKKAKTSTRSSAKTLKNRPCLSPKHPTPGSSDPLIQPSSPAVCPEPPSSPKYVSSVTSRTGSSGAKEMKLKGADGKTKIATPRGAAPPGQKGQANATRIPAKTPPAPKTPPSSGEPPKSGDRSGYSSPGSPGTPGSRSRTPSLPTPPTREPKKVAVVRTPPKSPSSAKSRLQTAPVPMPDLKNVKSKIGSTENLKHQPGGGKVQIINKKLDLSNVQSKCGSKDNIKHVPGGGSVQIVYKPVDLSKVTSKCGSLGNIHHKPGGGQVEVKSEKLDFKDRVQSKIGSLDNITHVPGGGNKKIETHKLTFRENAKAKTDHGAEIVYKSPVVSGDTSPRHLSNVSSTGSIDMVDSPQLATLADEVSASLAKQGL
Experimental: (§1) Assay for Determination of […] for Tau and A-Beta
(§2) Recombinant human-microtubule associated protein Tau purified from E. coli is aggregated at a concentration of 5 μM with Arachidonic Acid (100 μM) in Tris 10 mM pH8, 24 h at 37° C. Synthetic Aβ40 is aggregated at a concentration of 50 μM with Arachidonic Acid (100 μM) in Tris 10 mM pH8, for three days at 37° C., under shaking at 150 rpm.
(§3) A saturation analysis of Thiazin-red R to the aggregated proteins is done to determine the affinity (Kd) of the Thiazin-red R to the aggregated protein.
(§4) Thiazin-red R will be added at the concentration corresponding to the Kd to the respective aggregated protein binding site, to induce a fluorescent signal that can be inhibited by the addition of a displacer compound.
(§5) In parallel, auto fluorescence of the compound is measured together with the aggregated proteins, but without Thiazin-red R. As negative control, ligand and aggregated protein is used and as positive control, Thiazin-red R, reference compound with known activity and aggregated protein is used.
(§6) Assay is performed in Perkin Elmer OptiPlate 384, black, 45 ul assay volume, assay buffer is DPBS no CaCl2 no MgCl2 (GIBCO N. 14020). Tested compounds are diluted in DMSO and 2 μl is added to the assay ([…]). Assay is started by the addition of the aggregated protein (competitive condition). Plates are shortly shacked (1 min with Sterico variomag teleshake) and incubated for 30 min at room temperature. Measurement are done with En:Vision (Perkin Elmer), at Excitation 531 nm/Emission 595 nm.

[2] = biological target: T2, aggregated synthetic Aβ40 (Homo sapiens, UniProt P05067); assay: Thiazin-red R displacement fluorescence assay on aggregated A-beta; format: binding; settings: displacement of Thiazin-red R from aggregated Aβ40; compound 0.3 nM to 10000 nM; 30 min room temperature; Ex 531 nm/Em 595 nm
T2 construct: Synthetic Aβ40 is aggregated at a concentration of 50 μM
T2 sequence (P05067 672-711 limits assumed): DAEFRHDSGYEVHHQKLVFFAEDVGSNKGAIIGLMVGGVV
Experimental: as §1, §2, §3, §4, §5, §6

IC50 [1] [nM]	IC50 [2] [nM]	SMILES
7	1020	COc1cc(/C=c2\sc3nc(-c4cccc(C)c4)cn3c2=O)cc(Cl)c1O [Example 52, 2-[1-(3-Chloro-4-hydroxy-5-methoxy-phenyl)-meth-(Z)-ylidene]-6-m-tolyl-imidazo[2,1-b]thiazol-3-one]
17	1230	O=c1/c(=C/c2cc(F)c(O)c(OCCCF)c2)sc2nc(-c3ccncc3)cn12 [Example 124, 2-[1-(3-Fluoro-5-(3-fluoropropoxy)-4-hydroxy-phenyl)-meth-(Z)-ylidene]-6-pyridin-4-yl-imidazo[2,1-b]thiazol-3-one]
4	395	CNC(=O)c1cccc(-c2cn3c(=O)/c(=C/c4cc(Cl)c(O)c(OC)c4)sc3n2)c1 [Example 108, 3-{2-[1-(3-Chloro-4-hydroxy-5-methoxy-phenyl)-meth-(Z)-ylidene]-3-oxo-2,3-dihydro-imidazo[2,1-b]thiazol-6-yl}-N-methyl-benzamide]
79	> 10000	COc1cc(/C=c2\sc3nc(-c4ccnc(C)c4)cn3c2=O)ccc1O [Example 12, 2-[1-(4-Hydroxy-3-methoxy-phenyl)-meth-(Z)-ylidene]-6-(2-methyl-pyridin-4-yl)-imidazo[2,1-b]thiazol-3-one]
8	32	COc1cc(/C=c2\sc3nc(-c4ccnc(C)c4)cn3c2=O)cc(OC)c1O [Example 16, 2-[1-(4-Hydroxy-3,5-dimethoxy-phenyl)-meth-(Z)-ylidene]-6-(2-methyl-pyridin-4-yl)-imidazo[2,1-b]thiazol-3-one]
2	50	COc1cc(/C=c2\sc3nc(-c4cccc(F)c4)cn3c2=O)cc(OC)c1O [Example 59, 2-[1-(4-Hydroxy-3,5-dimethoxy-phenyl)-meth-(Z)-ylidene]-6-(3-fluoro-phenyl)-imidazo[2,1-b]thiazol-3-one]
37	466	COc1ccc(-c2nc3s/c(=C\c4cc(Cl)c(O)c(OC)c4)c(=O)n3c2C)cc1 [Example 14, 2-[1-(3-Chloro-4-hydroxy-5-methoxy-phenyl)-meth-(Z)-ylidene]-6-(4-methoxy-phenyl)-5-methyl-imidazo[2,1-b]thiazol-3-one]
28	550	COc1cc(/C=c2\sc3nc(-c4ccc(C(=O)N(C)C)cc4)cn3c2=O)cc(Cl)c1O [Example 126, 4-{2-[1-(3-Chloro-4-hydroxy-5-methoxy-phenyl)-meth-(Z)-ylidene]-3-oxo-2,3-dihydro-imidazo[2,1-b]thiazol-6-yl}-N,N-dimethyl-benzamide]
2	168	COc1cc(/C=c2\sc3nc(-c4ccc(C(=O)OCCCF)cc4)cn3c2=O)cc(Cl)c1O [Example 149, 4-{2-[1-(3-Chloro-4-hydroxy-5-methoxy-phenyl)-meth-(Z)-ylidene]-3-oxo-2,3-dihydro-imidazo[2,1-b]thiazol-6-yl}-benzoic acid 3-fluoro-propyl ester]
8	493	CCCOc1cc(/C=c2\sc3nc(-c4ccc(-n5cnc(C)c5)nc4)cn3c2=O)cc(Cl)c1O [Example 112, 2-[1-(3-Chloro-4-hydroxy-5-propoxy-phenyl)-meth-(Z)-ylidene]-6-[6-(4-methyl-imidazol-1-yl)-pyridin-3-yl]-imidazo[2,1-b]thiazol-3-one]
33	4920	CCCOc1cc(/C=c2\sc3nc(-c4cnccc4C)cn3c2=O)cc(Cl)c1O [Example 109, 2-[1-(3-Chloro-4-hydroxy-5-propoxy-phenyl)-meth-(Z)-ylidene]-6-(4-methyl-pyridin-3-yl)-imidazo[2,1-b]thiazol-3-one]
2	4	CCOc1cc(/C=c2\sc3nc(-c4ccc(Cl)cc4)cn3c2=O)cc(OC)c1O [Example 26, 6-(4-Chloro-phenyl)-2-[1-(3-ethoxy-4-hydroxy-5-methoxy-phenyl)-meth-(Z)-ylidene]-imidazo[2,1-b]thiazol-3-one]
16	1810	COc1cc(/C=c2\sc3nc(-c4cccc(C(F)(F)F)c4)cn3c2=O)cc(F)c1O [Example 41, 2-[1-(3-fluoro-4-hydroxy-5-methoxy-phenyl)-meth-(Z)-ylidene]-6-(3-(trifluoromethyl)-phenyl)-imidazo[2,1-b]thiazol-3-one]
28	2150	COc1cc(/C=c2\sc3nc(-c4cccc(OCCOCCOCCF)c4)cn3c2=O)cc(Cl)c1O [Example 95, 2-[1-(3-Chloro-4-hydroxy-5-methoxy-phenyl)-meth-(Z)-ylidene]-6-(3-{2-[2-(2-fluoro-ethoxy)-ethoxy]-ethoxy}-phenyl)-imidazo[2,1-b]thiazol-3-one]
11	393	COc1cc(/C=c2\sc3nc(-c4ccc(Cl)cc4)cn3c2=O)cc(F)c1O [Example 4, 6-(4-Chloro-phenyl)-2-[1-(3-fluoro-4-hydroxy-5-methoxy-phenyl)-meth-(Z)-ylidene]-imidazo[2,1-b]thiazol-3-one]
12	1060	O=c1/c(=C/c2cc(Cl)c(O)c(OCCCF)c2)sc2nc(-c3ccncc3)cn12 [Example 123, 2-[1-(3-Chloro-5-(3-fluoropropoxy)-4-hydroxy-phenyl)-meth-(Z)-ylidene]-6-pyridin-4-yl-imidazo[2,1-b]thiazol-3-one]
28	5910	COc1cc(/C=c2\sc3nc(-c4ccc(F)c(C(F)(F)F)c4)cn3c2=O)cc(Br)c1O [Example 46, 2-[1-(3-bromo-4-hydroxy-5-methoxy-phenyl)-meth-(Z)-ylidene]-6-(4-fluoro-3-(trifluoromethyl)-phenyl)-imidazo[2,1-b]thiazol-3-one]
1	76	COc1cc(/C=c2\sc3nc(-c4ccnc(C)c4)cn3c2=O)cc(Br)c1O [Example 77, 2-[1-(3-Bromo-4-hydroxy-5-methoxy-phenyl)-meth-(Z)-ylidene]-6-(2-methylpyridin-4-yl)-imidazo[2,1-b]thiazol-3-one]
11	412	COc1cc(/C=c2\sc3nc(-c4cccc(Cl)c4)cn3c2=O)cc(F)c1O [Example 39, 2-[1-(3-fluoro-4-hydroxy-5-methoxy-phenyl)-meth-(Z)-ylidene]-6-(3-chloro-phenyl)-imidazo[2,1-b]thiazol-3-one]
5	93	COc1cc(/C=c2\sc3nc(-c4ccncc4)cn3c2=O)cc(OC)c1O [Example 1, 2-[1-(4-Hydroxy-3,5-dimethoxy-phenyl)-meth-(Z)-ylidene]-6-pyridin-4-yl-imidazo[2,1-b]thiazol-3-one]
26	979	CCCOc1cc(/C=c2\sc3nc(-c4ccsc4)cn3c2=O)cc(Cl)c1O [Example 131, 2-[1-(3-Chloro-4-hydroxy-5-propoxy-phenyl)-meth-(Z)-ylidene]-6-thiophen-3-yl-imidazo[2,1-b]thiazol-3-one]
3	229	COc1cc(/C=c2\sc3nc(-c4cccnc4)cn3c2=O)cc(Br)c1O [Example 72, 2-[1-(3-Bromo-4-hydroxy-5-methoxy-phenyl)-meth-(Z)-ylidene]-6-(pyridin-3-yl)-imidazo[2,1-b]thiazol-3-one]
25	> 10000	COc1cc(/C=c2\sc3nc(-c4cccc(C#N)c4)cn3c2=O)cc(Br)c1O [Example 45, 3-{2-[1-(3-Bromo-4-hydroxy-5-methoxy-phenyl)-meth-(Z)-ylidene]-3-oxo-2,3-dihydro-imidazo[2,1-b]thiazol-6-yl}-benzonitrile]
3	20	COc1cc(/C=c2\sc3nc(-c4cccc(C)c4)cn3c2=O)cc(OC)c1O [Example 20, 2-[1-(4-Hydroxy-3,5-dimethoxy-phenyl)-meth-(Z)-ylidene]-6-m-tolyl-imidazo[2,1-b]thiazol-3-one]
0.6	14	COc1cc(/C=c2\sc3nc(-c4ccc(OC(F)F)cc4)cn3c2=O)cc(Cl)c1O [Example 88, 2-[1-(3-Chloro-4-hydroxy-5-methoxy-phenyl)-meth-(Z)-ylidene]-6-(4-(difluoromethoxy)phenyl)-imidazo[2,1-b]thiazol-3-one]
2	18	COc1cc(/C=c2\sc3nc(-c4ccc(Cl)cc4)cn3c2=O)cc(Br)c1O [Example 7, 6-(4-Chloro-phenyl)-2-[1-(3-bromo-4-hydroxy-5-methoxy-phenyl)-meth-(Z)-ylidene]-imidazo[2,1-b]thiazol-3-one]

SMILES	IC50 [1] [nM]	IC50 [2] [nM]
COc1cc(/C=c2\sc3nc(-c4cccc(S(=O)(=O)F)c4)cn3c2=O)cc(Cl)c1O [Example 152, 3-{2-[1-(3-Chloro-4-hydroxy-5-methoxy-phenyl)-meth-(Z)-ylidene]-3-oxo-2,3-dihydro-imidazo[2,1-b]thiazol-6-yl}-benzenesulfonyl fluoride]	7	19
